Values of other authors, collected in patent US20250127863A1, “ANTIMICROBIAL PEPTIDE FOR ONYCHOMYCOSIS” (CBMR SCIENTIFIC NANOSCIENCE B.V., priority 2019, published 2025).

How the values were obtained:
[1] = tested on: onychomycosis; conditions: topical, specialist setting; after 48 weeks of treatment; cited from earlier work
[2] = tested on: onychomycosis; conditions: systemic use; cited from earlier work

For `C=C1CCN([C@H](C)[C@](O)(Cn2cncn2)c2ccc(F)cc2F)CC1` [efinaconazole], the cure rates [1] is listed as 15.2-17.8%.
For `CN(C/C=C/C#CC(C)(C)C)Cc1cccc2ccccc12` [terbinafine], the “(mycological) cure” value [2] is given as 70.9%.
In the case of `Clc1ccc(C(Cn2ccnc2)OCc2ccsc2Cl)c(Cl)c1` (stereo not drawn) [tioconazole], the cure rates [1] is listed as 22%.
